Measurements: patent publication EP1087941B9, “THIOLESTERS AND USES THEREOF” (THE UNITED STATES OF AMERICA, as represented by THE …, priority 1998, dated 1999)
Where two headings read alike, the source gives them in different places.

Columns and labels:
[1] = target: T1, recombinant HIV-1 NCp7 protein (Human immunodeficiency virus type 1 group M subtype B, UniProt P03347); experiment: Trp37 zinc finger fluorescence (zinc ejection) assay; type: biochemical; design: Zinc Finger Reactivity, percent total decrease in flourescence / Zinc Finger Reactivity % Decrease: concentration or dose not given beside the values; settings: for zinc finger reactivity in the presence of glutathione: 2 molar excess of glutathione; for Zinc Finger Reactivity, decrease in relative fluorescence units per 30 min. / Zinc Finger Reactivity, percent total decrease in flourescence: Table 7; for Zinc Finger Reactivity, percent total decrease in flourescence: value in parenthesis; for percent decrease in total Trp37 fluorescence (zinc ejection) at 2000 µM: 30 min incubation, read-out: Zinc Finger Reactivity % Decrease; for Zinc Finger Reactivity % Decrease: total percent decrease during a 30 min incubation; for zinc finger reactivity: result in words
T1 construct: within the nucleocapsid p7 (NCp7) protein portion of the polyprotein
Protocol: Zinc finger reactivity was measured using a Zn specific fluorochrome, TSQ, N-(6-methoxy-8-quinolyl) -p-toluenesulfonamide, assay or a Trp37 zinc finger fluorescence assay. Fluorescent measurements of the Trp37 residue in the C-terminal finger of recombinant HIV-1 NCp7 protein were performed as described by Rice (1995) Science 270:1194-1197; Rice (1997) Antimicrob. Agents Chemother. 41:419-426. Measurement of Zn ejection from both fingers was measured using the Zn-selective fluorchrome probe TSQ (Molecular Probes, Eugene OR) as described by Rice (1996) J. Med. Chem 39:3606-3616. Measurement of the ability of NCp7 to bind to a DNA oligomer, a 44 mer: […] (SEQ ID NO:1), analogous to the HIV-1 RNA packaging site was carried out as described by Huang (1998) J. Med. Chem. 41:1371-1381, see also, Rossio (1998) HIV Pathogenesis and Treatment: Keystone Symposium on Molecular and Cellular Biology, Abstract # 4082. Briefly, 50 nM NCp7 was treated with test compounds for 1 hour at RT in […] buffer containing 10% glycerol and 50 mM Tris-HCl (pH 7.5). Labeled oligomer (0.1 picomole, end labeled [^32P]) was added in an equal volume of buffer containing 10% glycerol, 50 mM Tris-HCl (pH 7.5), 400 mM KCl and 40 mM MgCl2. The reaction was continued for 15 min at room temperature, and a total of […] (or 1/4 of the total reaction volume) was separated on nondenaturing 4.5% polyacrylamide gels in 0.5X Tris-Borate electrophoresis buffer. NCp7-oligomer complexes were visualized by autoradiography.
Changes in the intrinsic fluorescence of aromatic protein moieties are commonly used to monitor a reaction which involves a change in protein conformation. In the present invention, fluorescence can be used to monitor the loss of metal ion from a zinc finger, e.g., the loss of zinc from a CCHC retroviral zinc finger protein, after contact with a thiolester of the invention. The intrinsic fluorescence of Trp 37 in the second zinc finger of HIV-1 NC protein has been used to monitor nucleic acid binding and conformation of the zinc finger complex (see, Summers (1992) supra).
Zinc ejection is measured by the ability of compounds to chemically attack the cysteines in purified NCp7 protein resulting in a loss of fluorescence due to the movement of the tryptophan 37 residue from an exposed to an internal position on the protein. Zinc ejection is measured and expressed as either percent decrease in total fluorescence or decrease in relative fluorescence units per min during a 30 min assay (RFU/min). A thiolester is considered within the scope of the invention if any amount of zinc ejection is detected. For example, compound 50 has a zinc ejection rate of 0.86 RFU/min.

[2] = target: T2, recombinant HIV-1 integrase (Human immunodeficiency virus type 1 group M subtype B, UniProt P03366); experiment: Integrase 3' processing and strand transfer assay; type: biochemical; settings: for IC50: Table 7, high dose test of 100 µM, read-out: Integrase I50
T2 construct: The ability of recombinant HIV-1 integrase; S. Hughes, ABL Basic Research NCI-FCRDC, Frederick MD (supplied, not a catalogue product)
Protocol: The 5-bromovaleroyl thioester, compound 44, and two 5-pyridiniovaleroyl thioesters, compounds 45 and 47, were analyzed in mechanistic and target-based assays. […] Assays for activity against HIV-1 reverse transcriptase rAdT (template/primer) and rCdG (template/primer) using recombinant HIV-1 reverse transcriptase (S. Hughes, ABL Basic Research NCI-FCRDC, Frederick MD) were performed as described by Rice (1997) supra. Substrate cleavage of recombinant HIV-1 protease in the presence of test compounds using an HPLC-based methodology with the artificial substrate Ala-Ser-Glu-Asn-Try- Pro-Ile-Val-amide (Multiple Peptide Systems, San Diego CA) was performed as described by Rice (1997) supra. The ability of recombinant HIV-1 integrase (S. Hughes, ABL Basic Research NCI-FCRDC, Frederick MD) to carry out 3' processing and strand transfer activities in the presence of test compounds was performed as described by Buckheit (1994) AIDS Res. Hum. Retroviruses 10:1497-1506, and Turpin (1998) Antimicrob. Agents Chemother. 42: 487-494.

virus attachment = experiment: Cell-based p24 attachment assay; settings: for IC50: Table 7, high dose test of 100 µM, read-out: Attachment I50
Protocol: (§1) The cell-based p24 attachment assay was performed as described in Rice (1995) Science 270:1194-1197. Viral inactivation assays were carried out as described in Rice (1995) Science 270:1194-1197, and Turpin (1997) supra, with minor modifications. Briefly, MAGI-CCR-5 cells were plated (4 x 10^4 cells per well) in flat bottomed 2-cm well plates for 24 h, after which the culture media was removed and compound-treated virus was added. The virus used was obtained by transient transfection of pNL4-3 into HeLa cells yielding the replication competent NL4-3 virus. Virus containing supernatants were treated for 2 h at 37°C after which residual compound was removed by centrifugation (18,000 x g, 1h, 4°C). Virus pellets were resuspended and placed on the MAGI-CCR-5 monolayers and cultured for 48 h. Monolayers were fixed and stained with X-gal solution and blue cells counted.

HIV-1 NL4-3 = experiment: Virucidal (viral inactivation) assay on MAGI-CCR-5 cells; type: cell-based
Protocol: as §1
NCp7 cross-linking is associated with viral inactivation. Whether the ability to crosslink the nucleocapsid protein, as determined by Western blotting, correlated with the ability to inactivate the viruses was tested in a virucidal assay. Virus stocks of HIV-1 NL4-3 were incubated with various thiolester compounds. The virus was obtained by transient transfection of a replication-competent pNL4-3 plasmid into HeLa cells. Residual thiolester was removed by centrifugation. The virus pellet was resuspended in culture media and used to infect MAGI-CCR-5 cells. At 48 hours post-infection, the cells were washed and stained with X-Gal. Compounds 44 and 45 were virucidal with I50 (concentration resulting in 50% virus inactivation) values of 12.3 µM and 13.2 µM, respectively.

[3] = Table 5, average decrease in relative fluorescence units over 30 min
[4] = Table 6, average decrease in relative fluorescence units over 30 min
[5] = Table 8, GSH +: compounds (2 mM) treated 2 h at 37°C with 4 mM reduced glutathione
[6] = Human immunodeficiency virus 1, NL43, MAGI-CCR5, read-out: Virucidal Activity (I50 µM)
[7] = Human immunodeficiency virus 1, NL43, MAGI-CCR5, read-out: virucidal I50 (concentration resulting in 50% virus inactivation)

| SMILES | zinc finger reactivity in the presence of glutathione [1] | Zinc Finger Reactivity RFU/ min [1, 3] | Zinc Finger Reactivity RFU/ min [1, 4] | Zinc Finger Reactivity, decrease in relative fluorescence units per 30 min. [1] | Zinc Finger Reactivity, percent total decrease in flourescence [1] | Zinc Finger Reactivity RFU/ min [1, 5] | percent decrease in total Trp37 fluorescence (zinc ejection) at 2000 µM [1, 5] | Zinc Finger Reactivity RFU/ min ([1]; Table 8, GSH -) | Zinc Finger Reactivity % Decrease ([1]; Table 8, GSH -) | zinc finger reactivity [1] | inhibition of HIV-1 integrase enzyme activity [2] | IC50 [2] | inhibition of virus attachment (virus attachment) | IC50 (virus attachment) | IC50 (HIV-1 NL4-3; [6]) | IC50 (HIV-1 NL4-3; [7]) | zinc finger reactivity / zinc ejection rate [1] | Zinc Finger Reactivity RFU/ min ([1]; Table 10, average decrease in relative fluorescence units over 30 min) |
| --- | --- | --- | --- | --- | --- | --- | --- | --- | --- | --- | --- | --- | --- | --- | --- | --- | --- | --- |
| CC(=O)NS(=O)(=O)c1ccc(NC(=O)c2ccccc2SC(=O)CCCCBr)cc1 [Compound 44, N-[2-(5-bromovaleroylthio)benzoyl]sulfacetamide] | maintained the capacity to attack the cysteine thiols | 1.8 RFU/ min | 1.8 RFU/ min | 1.8 RFU/30 MIN | 13.3% | 2.4 RFU/min | 28% | 6.5 RFU/min | 60.1% | promoted metal ion (zinc) ejection | did not inhibit | > 100 µM | did not inhibit | > 100 µM | 12.3 µM | 12.3 µM | – | – |
| CC(=O)NS(=O)(=O)c1ccc(NC(=O)c2ccccc2SC(=O)CCCC[n+]2ccccc2)cc1 [Compound 45, N-[2-(5-pyridinio-valeroylthio)benzoyl]sulfacetamide bromide] | maintained the capacity to attack the cysteine thiols | 3.6 RFU/ min | 3.6 RFU/ min | 3.6 RFU/30 MIN | 34.7% | 3.8 RFU/min | 36.9% | 2.6 RFU/min | 28.2% | promoted metal ion (zinc) ejection | did not inhibit | > 100 µM | did not inhibit | > 100 µM | 13.2 µM | 13.2 µM | 3.6 RFU/min | 3.6 RFU/ min |
| O=C(CCCC[n+]1ccccc1)Sc1ccccc1C(=O)Nc1ccc(S(=O)(=O)c2ccc([N+](=O)[O-])cc2)cc1 [Compound 47] | maintained the capacity to attack the cysteine thiols | – | 4.1 RFU/ min | 4.1 RFU/30 MIN | 17.9% | 1.6 RFU/min | 21.1% | 1.6 RFU/min | 24.3% | promoted metal ion (zinc) ejection | did not inhibit | – | did not inhibit | > 100 µM | 2.1 µM | 2.1 µM | – | – |
